Measurements reported in patent US20190241569A1, “3-(ARYL OR HETEROARYL) METHYLENEINDOLIN-2-ONE DERIVATIVES AS INHIBITORS OF CANCER STEM CELL PATHWAY KINASES FOR THE TREATMENT OF CANCER” (Boston Biomedical, Inc., priority 2013, published 2019).
Like-named read-outs stand apart in the source and are kept apart here.

Legend:
Assay type in all cases: cell-based
FaDu = experiment: Bulk cancer cells, Cell Titer-Glo 72 hours (Test Example 2); conditions: Homo sapiens
Procedure: (§1) Tubes of 3× drug (60 uM in 500 uL complete media) were prepared from 5 mM stock solutions in DMSO. […] To treat cells, 50 uL of drug from the dilution plate was removed and added to the cell plates. […] Cells were harvested 72 hours after drug addition using Cell Titer-Glo (Promega) and luminescence measured on a plate reader.

A549 CSC = experiment: Cancer stem cells, Cell Titer-Glo 72 hours (Test Example 3); conditions: Homo sapiens
ACHN CSC = experiment: as above
FaDu CSC = experiment: as above
A549 = experiment: Bulk cancer cells, Cell Titer-Glo 72 hours (Test Example 2); conditions: Homo sapiens
Procedure: as §1

ACHN = experiment: as above
Procedure: as §1

Row | SMILES | IC50 (FaDu) [µM] | IC50 (A549 CSC) [µM] | IC50 (ACHN CSC; Homo sapiens, ACHN, 72 h) [µM] | IC50 (FaDu CSC; Homo sapiens, FaDu, 72 h) [µM] | IC50 (A549) [µM] | IC50 (ACHN; Homo sapiens, ACHN, 72 h) [µM] | IC50 (ACHN CSC) [µM] | IC50 (FaDu CSC) [µM] | IC50 (ACHN) [µM]
1 | CCN(CC)CCNC(=O)c1c(C)[nH]c(/C=C2\C(=O)Nc3cc(-c4csc(-c5ccccc5)n4)ccc32)c1C [Example 7] | 1.8 | 3.73 | 0.19 | 0.6 | – | – | – | – | –
2 | Cc1[nH]c(/C=C2\C(=O)Nc3ccc(-c4ccc(-c5ccccc5)s4)cc32)c(C)c1C(=O)N1CCOCC1 [Example 11] | 21.1 | 11 | 0.23 | 2.47 | 10.1 | 12.8 | – | – | –
3 | CCN(CC)CCNC(=O)c1c(C)[nH]c(/C=C2\C(=O)Nc3ccc(-c4csc(-c5ccc(C)cc5)n4)cc32)c1C [Example 102] | – | 10.5 | 0.69 | 3.4 | – | – | – | – | –
4 | Cc1ccc(-c2nc(-c3ccc4c(c3)/C(=C/c3[nH]c(C)c(C(=O)NCCN5CCCC5)c3C)C(=O)N4)cs2)cc1 [Example 103] | 4.22 | 12.2 | 0.14 | 0.31 | 5.99 | 2.32 | – | – | –
5 | CCN(CC)CCN(C)C(=O)c1c(C)[nH]c(/C=C2\C(=O)Nc3ccc(-c4csc(-c5ccccc5)n4)cc32)c1C [Example 129, (Z)-N-(2-(diethylamino)ethyl)-N,2,4-trimethyl-5-((2-oxo-5-(2-phenylthiazol-4-yl)indolin-3-ylidene)methyl)-1H-pyrrole-3-carboxamide] | 18.3 | 10.5 | 0.69 | 3.6 | 9.94 | 11.3 | – | – | –
6 | COC(=O)c1c(C)[nH]c(/C=C2\C(=O)Nc3ccc(-c4csc(-c5ccncc5)n4)cc32)c1C [Example 145] | 18.6 | 4.8 | 6.16 | 6.74 | 9.61 | 12.6 | – | – | –
7 | Cc1[nH]c(/C=C2\C(=O)Nc3ccc(-c4csc(-c5ccccc5)n4)cc32)c(C)c1S(=O)(=O)N1CCCC1 [Example 146] | 5.48 | – | 5.05 | 6.56 | 2.86 | 12.6 | – | – | –
8 | Cc1[nH]c(/C=C2\C(=O)Nc3ccc(-c4csc(-c5ccccc5)n4)cc32)c(C)c1S(=O)(=O)N1CCOCC1 [Example 147] | 11.4 | 3.73 | 0.56 | 0.21 | 7.28 | 10.7 | – | – | –
9 | CCN(CC)CCNC(=O)CCc1c(C)[nH]c(/C=C2\C(=O)Nc3ccc(-c4csc(-c5ccccc5)n4)cc32)c1C [Example 149] | 3.85 | 8.74 | 4.23 | 3.53 | 1.11 | 2.48 | – | – | –
10 | O=C1Nc2ccc(-c3csc(-c4ccncc4)n3)cc2/C1=C/c1ncc[nH]1 [Example 153] | 3.42 | 2.6 | 9.21 | – | 14.8 | 0.29 | – | – | –
11 | O=C1Nc2ccc(-c3csc(-c4ccccc4)n3)cc2/C1=C/c1cc2c([nH]1)CCCC2 [Example 155] | 20.2 | 1.42 | 2.52 | 4.09 | – | 34.6 | – | – | –
12 | O=C1Nc2ccc(-c3csc(-c4ccccc4)n3)cc2/C1=C/c1[nH]cc2ccccc12 [Example 162] | – | – | 4.08 | 5.04 | – | – | – | – | –
13 | CCOC(=O)c1[nH]c(/C=C2\C(=O)Nc3ccc(-c4csc(-c5ccccc5)n4)cc32)c2c1CCCC2 [Example 164] | – | – | 1.6 | 2.91 | – | 0.83 | – | – | –
14 | CCN(CC)CCN1CCCc2[nH]c(/C=C3\C(=O)Nc4ccc(-c5csc(C6CCNCC6)n5)cc43)c(C)c2C1=O [Example 178] | 8.67 | – | 11.9 | – | 7.06 | – | – | – | –
15 | CCN(CC)CCNC(=O)c1c(C)[nH]c(/C=C2\C(=O)Nc3ccc(-c4ccc5ccccc5n4)cc32)c1C [Example 186] | 0.92 | 1.51 | 0.33 | – | 1.8 | 2.74 | – | – | –
16 | CCN(CC)CCNC(=O)c1c(C)[nH]c(/C=C2\C(=O)Nc3ccc(-c4csc(C(=O)O)c4)cc32)c1C [Example 202] | – | 14.1 | 1.28 | 14.1 | 7.79 | 7.74 | – | – | –
17 | Cc1cc(C)c(/C=C2\C(=O)Nc3ccc(-c4ncccc4C)cc32)[nH]1 [Example 211] | – | – | 0.01 | 41.1 | 22.4 | 7.95 | – | – | –
18 | Cc1ccc(-c2ccc3c(c2)/C(=C/c2[nH]c(C)cc2C)C(=O)N3)cn1 [Example 213] | – | – | – | – | 25.8 | 24.9 | 0.01 | – | –

Row | SMILES | IC50 (FaDu) [µM] | IC50 (A549 CSC) [µM] | IC50 (ACHN CSC; Homo sapiens, ACHN, 72 h) [µM] | IC50 (FaDu CSC; Homo sapiens, FaDu, 72 h) [µM] | IC50 (A549) [µM] | IC50 (ACHN; Homo sapiens, ACHN, 72 h) [µM] | IC50 (ACHN CSC) [µM] | IC50 (FaDu CSC) [µM] | IC50 (ACHN) [µM]
19 | Cc1ccc(-c2ccc3c(c2)/C(=C/c2[nH]c(C)cc2C)C(=O)N3)nc1 [Example 216] | 37.3 | – | 0.05 | – | – | – | – | – | –
20 | Cc1cc(C)c(/C=C2\C(=O)Nc3ccc(-c4cnsc4)cc32)[nH]1 [Example 220] | 26.7 | – | 17.1 | 43.4 | – | 42.8 | – | – | –
21 | CSc1cnc(-c2ccc3c(c2)/C(=C/c2[nH]c(C)cc2C)C(=O)N3)cn1 [Example 221] | – | – | 18.3 | – | 35.8 | 0.16 | – | – | –
22 | Cc1cc(C)c(/C=C2\C(=O)Nc3ccc(-c4ncccc4C)cc32)[nH]1 [Example 225] | – | – | – | – | – | – | 0.01 | 47.4 | –
23 | Cc1cc(C)c(/C=C2\C(=O)Nc3ccc(-c4ccccn4)cc32)[nH]1 [Example 226] | – | – | 0.02 | – | – | – | – | – | –
24 | Cc1ccc(-c2ccc3c(c2)/C(=C/c2[nH]c(C)cc2C)C(=O)N3)cn1 [Example 228] | – | 25.4 | – | – | – | – | 3.42 | – | 22.4
25 | Cc1cc(C)c(/C=C2\C(=O)Nc3ccc(-c4cnc(-c5ccccc5)cn4)cc32)[nH]1 [Example 233] | – | – | 6.8 | – | – | – | – | – | –
26 | Cc1cc(C)c(/C=C2\C(=O)Nc3ccc(-c4ccncc4)cc32)[nH]1 [Example 238] | – | – | 6.95 | – | – | – | – | – | –
27 | Cc1cc(C)c(/C=C2\C(=O)Nc3cc(-c4cnc5ccccc5n4)ccc32)[nH]1 [Example 242] | – | 5.83 | 2.54 | 8.8 | 18.2 | – | – | – | –
28 | Cc1ccc(-c2ccc3c(c2)NC(=O)/C3=C\c2[nH]c(C)cc2C)cn1 [Example 244] | – | 23.7 | 4.55 | 3.61 | – | 22 | – | – | –
29 | CCN(CC)CCNC(=O)c1c(C)[nH]c(/C=C2\C(=O)Nc3cc(-c4ccc(-c5ccccc5)nc4)ccc32)c1C [Example 249] | – | 3.59 | 0.21 | 1.12 | 14.8 | – | – | – | –
30 | CCN(CC)CCNC(=O)c1c(C)[nH]c(/C=C2\C(=O)Nc3cc(-c4ccc5ccccc5n4)ccc32)c1C [Example 253] | 16.6 | 6.59 | 1.36 | 5.15 | 16.4 | – | – | – | –
31 | CCN(CC)CCNC(=O)c1c(C)[nH]c(/C=C2\C(=O)Nc3cc(-c4nccc5ccccc45)ccc32)c1C [Example 255] | 9.12 | – | 1.91 | 24.4 | 7.14 | 6.51 | – | – | –
32 | CCN(CC)CCNC(=O)c1c(C)[nH]c(/C=C2\C(=O)Nc3cc(-c4ccc(-c5ccccc5)cn4)ccc32)c1C [Example 256] | 19.8 | 4.93 | 2.88 | 1.18 | – | – | – | – | –
33 | CCN(CC)CCNC(=O)c1c(C)[nH]c(/C=C2\C(=O)Nc3cc(-c4cnc5ccccc5c4)ccc32)c1C [Example 257] | 12.9 | 11.6 | 1.07 | 2.83 | 15.8 | – | – | – | –
34 | Cc1cc(C)c(/C=C2\C(=O)Nc3ccc(-c4cccc5ncccc45)cc32)[nH]1 [Example 259] | 13.4 | 40 | – | 13.1 | 11.1 | 13.2 | – | – | –
35 | CCN(CC)CCNC(=O)c1c(C)[nH]c(/C=C2\C(=O)Nc3ccc(-c4n[nH]c5c(N)cccc45)cc32)c1C [Example 268] | 7.09 | – | 30.9 | 28.4 | 11.6 | 12 | – | – | –
